Laboratory results reported in PubChem BioAssay (NCI).
In brackets after ≈: the same amount, converted by molar mass.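 48-hour exposure; five concentrations; linearly interpolated endpoints. GI50 = concentration required for 50% inhibition of growth. TGI is the concentration that stops growth completely.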

Columns and labels:
Assay in all cases: NCI tumour cell line growth inhibition, 48 h
CAKI-1 renal = test system: CAKI-1 renal
NCI-H522 lung = test system: NCI-H522 lung
NCI-H226 lung = test system: NCI-H226 lung
SF-268 CNS = test system: SF-268 CNS
SNB-19 CNS = test system: SNB-19 CNS
HCT-15 colon = test system: HCT-15 colon
RXF 393 renal = test system: RXF 393 renal
MDA-MB-231 breast = test system: MDA-MB-231 breast
OVCAR-3 ovarian = test system: OVCAR-3 ovarian
HS 578T breast = test system: HS 578T breast
SF-295 CNS = test system: SF-295 CNS
SK-MEL-28 melanoma = test system: SK-MEL-28 melanoma
UACC-257 melanoma = test system: UACC-257 melanoma
DU-145 prostate = test system: DU-145 prostate
T-47D breast = test system: T-47D breast
PC-3 prostate = test system: PC-3 prostate
COLO 205 colon = test system: COLO 205 colon
MDA-MB-435 = test system: MDA-MB-435
A549 NSCLC = test system: A549 NSCLC
CCRF-CEM leukemia = test system: CCRF-CEM leukemia
U251 CNS = test system: U251 CNS
LOX IMVI melanoma = test system: LOX IMVI melanoma
EKVX NSCLC = test system: EKVX NSCLC
MDA-N = test system: MDA-N
HCC-2998 colon = test system: HCC-2998 colon
OVCAR-8 ovarian = test system: OVCAR-8 ovarian
K-562 leukemia = test system: K-562 leukemia
NCI-H23 lung = test system: NCI-H23 lung
OVCAR-4 ovarian = test system: OVCAR-4 ovarian
TK-10 renal = test system: TK-10 renal
MALME-3M melanoma = test system: MALME-3M melanoma
KM12 colon = test system: KM12 colon
SN12C renal = test system: SN12C renal
SK-MEL-2 melanoma = test system: SK-MEL-2 melanoma
ACHN renal = test system: ACHN renal
HL-60(TB) leukemia = test system: HL-60(TB) leukemia
OVCAR-5 ovarian = test system: OVCAR-5 ovarian
IGROV1 ovarian = test system: IGROV1 ovarian
HOP-62 NSCLC = test system: HOP-62 NSCLC
SR leukemia = test system: SR leukemia
SK-OV-3 ovarian = test system: SK-OV-3 ovarian
SK-MEL-5 melanoma = test system: SK-MEL-5 melanoma
SF-539 CNS = test system: SF-539 CNS
MCF7 breast = test system: MCF7 breast
SNB-75 CNS = test system: SNB-75 CNS
HOP-92 NSCLC = test system: HOP-92 NSCLC
HT29 colon = test system: HT29 colon
SW-620 colon = test system: SW-620 colon
A498 renal = test system: A498 renal
NCI/ADR-RES ovarian = test system: NCI/ADR-RES ovarian
UACC-62 melanoma = test system: UACC-62 melanoma
M14 melanoma = test system: M14 melanoma
HCT-116 colon = test system: HCT-116 colon
NCI-H460 lung = test system: NCI-H460 lung
786-0 renal = test system: 786-0 renal
MOLT-4 leukemia = test system: MOLT-4 leukemia

`NC1=C(c2nc(-c3ccccc3)cs2)C(c2ccc(Br)cc2)c2c(c3ccccc3oc2=O)O1` (configuration not stated) was tested, and the GI50 (CAKI-1 renal) was 70 µg/mL (≈ 132 µM), the TGI (CAKI-1 renal) was over 150 µg/mL and the GI50 (NCI-H522 lung) was 47.1 µg/mL (≈ 89 µM). For the same compound, the TGI (NCI-H522 lung) was over 150 µg/mL, the GI50 (NCI-H226 lung) was 22.3 µg/mL (≈ 42.1 µM) and the TGI (NCI-H226 lung) was 94 µg/mL (≈ 177 µM). For the same compound, the GI50 (SF-268 CNS) was 89.7 µg/mL (≈ 169 µM), the TGI (SF-268 CNS) was over 150 µg/mL and the GI50 (SNB-19 CNS) was 58.3 µg/mL (≈ 110 µM). The TGI (SNB-19 CNS) was over 150 µg/mL, the GI50 (HCT-15 colon) was 70.1 µg/mL (≈ 132 µM) and the TGI (HCT-15 colon) was over 150 µg/mL. For the same compound, the GI50 (RXF 393 renal) was 40.7 µg/mL (≈ 76.9 µM), the TGI (RXF 393 renal) was 141 µg/mL (≈ 266 µM) and the GI50 (MDA-MB-231 breast) was 39.2 µg/mL (≈ 74.1 µM). For the same compound, the TGI (MDA-MB-231 breast) was over 150 µg/mL, the GI50 (OVCAR-3 ovarian) was over 150 µg/mL and the TGI (OVCAR-3 ovarian) was over 150 µg/mL. The GI50 (HS 578T breast) was 30.4 µg/mL (≈ 57.4 µM), the TGI (HS 578T breast) was 91.4 µg/mL (≈ 173 µM) and the GI50 (SF-295 CNS) was over 150 µg/mL. The TGI (SF-295 CNS) was over 150 µg/mL, the GI50 (SK-MEL-28 melanoma) was 79.9 µg/mL (≈ 151 µM) and the TGI (SK-MEL-28 melanoma) was over 150 µg/mL. For the same compound, the GI50 (UACC-257 melanoma) was over 150 µg/mL, the TGI (UACC-257 melanoma) was over 150 µg/mL and the GI50 (DU-145 prostate) was 128 µg/mL (≈ 242 µM). For the same compound, the TGI (DU-145 prostate) was over 150 µg/mL, the GI50 (T-47D breast) was 44.3 µg/mL (≈ 83.8 µM) and the TGI (T-47D breast) was over 150 µg/mL. The GI50 (PC-3 prostate) was over 150 µg/mL, the TGI (PC-3 prostate) was over 150 µg/mL and the GI50 (COLO 205 colon) was 78.1 µg/mL (≈ 148 µM). It also gave a TGI (COLO 205 colon) of over 150 µg/mL, a GI50 (MDA-MB-435) of over 150 µg/mL and a TGI (MDA-MB-435) of over 150 µg/mL. The GI50 (A549 NSCLC) was 46 µg/mL (≈ 86.9 µM), the TGI (A549 NSCLC) was over 150 µg/mL and the GI50 (CCRF-CEM leukemia) was 66.9 µg/mL (≈ 126 µM). It also gave a TGI (CCRF-CEM leukemia) of over 150 µg/mL, a GI50 (U251 CNS) of 48.2 µg/mL (≈ 91.1 µM) and a TGI (U251 CNS) of over 150 µg/mL. The GI50 (LOX IMVI melanoma) was over 150 µg/mL, the TGI (LOX IMVI melanoma) was over 150 µg/mL and the GI50 (EKVX NSCLC) was 50.2 µg/mL (≈ 94.8 µM). The TGI (EKVX NSCLC) was over 150 µg/mL, the GI50 (MDA-N) was 63.7 µg/mL (≈ 120 µM) and the TGI (MDA-N) was over 150 µg/mL. It also gave a GI50 (HCC-2998 colon) of 130 µg/mL (≈ 246 µM), a TGI (HCC-2998 colon) of over 150 µg/mL and a GI50 (OVCAR-8 ovarian) of 112 µg/mL (≈ 211 µM). For the same compound, the TGI (OVCAR-8 ovarian) was over 150 µg/mL, the GI50 (K-562 leukemia) was 77.1 µg/mL (≈ 146 µM) and the TGI (K-562 leukemia) was over 150 µg/mL. It also gave a GI50 (NCI-H23 lung) of 71 µg/mL (≈ 134 µM), a TGI (NCI-H23 lung) of over 150 µg/mL and a GI50 (OVCAR-4 ovarian) of 34.3 µg/mL (≈ 64.9 µM). The TGI (OVCAR-4 ovarian) was 99.9 µg/mL (≈ 189 µM), the GI50 (TK-10 renal) was over 150 µg/mL and the TGI (TK-10 renal) was over 150 µg/mL. It also gave a GI50 (MALME-3M melanoma) of over 150 µg/mL, a TGI (MALME-3M melanoma) of over 150 µg/mL and a GI50 (KM12 colon) of over 150 µg/mL. For the same compound, the TGI (KM12 colon) was over 150 µg/mL, the GI50 (SN12C renal) was 85.9 µg/mL (≈ 162 µM) and the TGI (SN12C renal) was over 150 µg/mL. For the same compound, the GI50 (SK-MEL-2 melanoma) was 89 µg/mL (≈ 168 µM), the TGI (SK-MEL-2 melanoma) was over 150 µg/mL and the GI50 (ACHN renal) was 129 µg/mL (≈ 243 µM). The TGI (ACHN renal) was over 150 µg/mL, the GI50 (HL-60(TB) leukemia) was 21.9 µg/mL (≈ 41.4 µM) and the TGI (HL-60(TB) leukemia) was 97.2 µg/mL (≈ 184 µM). It also gave a GI50 (OVCAR-5 ovarian) of over 150 µg/mL, a TGI (OVCAR-5 ovarian) of over 150 µg/mL and a GI50 (IGROV1 ovarian) of 96 µg/mL (≈ 181 µM). For the same compound, the TGI (IGROV1 ovarian) was over 150 µg/mL, the GI50 (HOP-62 NSCLC) was 116 µg/mL (≈ 219 µM) and the TGI (HOP-62 NSCLC) was over 150 µg/mL. The GI50 (SR leukemia) was 55.2 µg/mL (≈ 104 µM), the TGI (SR leukemia) was over 150 µg/mL and the GI50 (SK-OV-3 ovarian) was 60.1 µg/mL (≈ 114 µM). For the same compound, the TGI (SK-OV-3 ovarian) was over 150 µg/mL, the GI50 (SK-MEL-5 melanoma) was over 150 µg/mL and the TGI (SK-MEL-5 melanoma) was over 150 µg/mL. The GI50 (SF-539 CNS) was 104 µg/mL (≈ 197 µM), the TGI (SF-539 CNS) was over 150 µg/mL and the GI50 (MCF7 breast) was over 150 µg/mL. For the same compound, the TGI (MCF7 breast) was over 150 µg/mL, the GI50 (SNB-75 CNS) was 2.39 µg/mL (≈ 4.52 µM) and the TGI (SNB-75 CNS) was 36.7 µg/mL (≈ 69.3 µM). For the same compound, the GI50 (HOP-92 NSCLC) was 38.4 µg/mL (≈ 72.6 µM), the TGI (HOP-92 NSCLC) was 102 µg/mL (≈ 194 µM) and the GI50 (HT29 colon) was 148 µg/mL (≈ 279 µM). It also gave a TGI (HT29 colon) of over 150 µg/mL, a GI50 (SW-620 colon) of 73.9 µg/mL (≈ 140 µM) and a TGI (SW-620 colon) of over 150 µg/mL. It also gave a GI50 (A498 renal) of 33.9 µg/mL (≈ 64 µM), a TGI (A498 renal) of over 150 µg/mL and a GI50 (NCI/ADR-RES ovarian) of over 150 µg/mL. For the same compound, the TGI (NCI/ADR-RES ovarian) was over 150 µg/mL, the GI50 (UACC-62 melanoma) was 52.1 µg/mL (≈ 98.5 µM) and the TGI (UACC-62 melanoma) was over 150 µg/mL. The GI50 (M14 melanoma) was 90.1 µg/mL (≈ 170 µM), the TGI (M14 melanoma) was over 150 µg/mL and the GI50 (HCT-116 colon) was 79.6 µg/mL (≈ 150 µM). It also gave a TGI (HCT-116 colon) of over 150 µg/mL, a GI50 (NCI-H460 lung) of 66.8 µg/mL (≈ 126 µM) and a TGI (NCI-H460 lung) of over 150 µg/mL. For the same compound, the GI50 (786-0 renal) was 75.6 µg/mL (≈ 143 µM), the TGI (786-0 renal) was over 150 µg/mL and the GI50 (MOLT-4 leukemia) was 33 µg/mL (≈ 62.3 µM). The TGI (MOLT-4 leukemia) was 118 µg/mL (≈ 224 µM).
